Results as given in US8084500B2, “Method of using catalpic acid to treat dyslipidemia” (Nutrition Therapeutics, Inc., priority 2005, dated 2011).
Where two headings read alike, the source gives them in different places. Marks after values point to notes of the source that are not given here.

What was measured:
[1] = tested on: C57BL6 mice
Method: A glucose tolerance test was conducted on day 78 of the experiment. Animals were fasted overnight (14 hours). Mice were injected intraperitoneally with D-glucose (1 g/kg body weight) and blood samples were collected via the tail vein prior to the injection (time 0) and at 15, 30 and 60 minutes following the injection.

[2] = tested on: PPAR alpha; settings: for PPAR alpha mRNA expression in white adipose tissue: n = 10
Method: (§1) On day 28 or 78 of Experiments 1 and 2, visceral white adipose tissue (WAT) or pancreas samples were collected, stored in RNA later and frozen at −80° C. The dissection of intra-abdominal WAT was performed under magnification. RNA was isolated from WAT and pancreas specimens utilizing RNA isolation columns (Qiagen, Valencia, Calif.) per the manufacturer's instructions. RNA from the WAT was isolated using the Lipid Minikit (Qiagen). RNA was quantified using a μQuant microplate reader (Bio-TEK® Instruments, Inc., Winooski, Vt.). Briefly, total RNA (1 μg) from each sample was used to generate complementary DNA (cDNA) template using the iScript cDNA Synthesis Kit (Bio-Rad, Hercules, Calif.). The total reaction volume was 20 μl. The reaction was incubated as follows in a Tetrad Thermocycler (MJResearch, Waltham, Mass.): 5 minutes at 25° C., 30 minutes at 42° C., 5 minutes at 85° C., hold at 4° C. cDNA products were diluted 1:10 in diethylpyrocarbonate-treated water. Controls were also performed with no RNA template (no template) and omitting the reverse transcriptase enzyme (no RT).
(§2) The PCR primer pairs were designed based on previously published sequences (GenBank) using the Oligo 6 primer design software (Molecular Biology Insights, Cascade, Colo.). The PCR primer pair sequences, annealing temperatures, accession numbers and PCR product lengths are outlined in Table 5. […] Each gene amplicon was purified by using the MiniElute PCR Purification kit (Qiagen). The purified amplicon for each gene was quantified on an agarose gel using a DNA mass ladder. These purified amplicons were further used to optimize the real-time PCR conditions and to generate the standard curves in the real-time PCR assay. Primer concentrations and annealing temperatures were optimized for the iCycler iQ System (Bio-Rad) for each set of primers using the system's gradient protocol.
(§3) Messenger RNA (mRNA) expression of peroxisome proliferator-activated receptor (PPAR) gamma, PPAR alpha, and PPAR delta was determined in adipose tissue. […] Therefore, we also examined the expression of four PPAR alpha-responsive genes in WAT, including acyl-coenzyme A dehydrogenase (ACDH), stearoyl-coenzyme A desaturase (SCD1), enoyl-coenzyme A hydratase (ECH) and carnitine palmitoyl transferase-1 (Cpt-1).
(§4) Transcript expression was examined by real-time, quantitative PCR by using an iCycler iQ System and the iQ SYBR Green Supermix (Bio-Rad). Real-time PCR was used to measure the starting amount of nucleic acid by assaying each unknown starting quantity of cDNA on a 96-well plate. For each gene, the results were calculated as starting quantity of cDNA (picograms) per microgram of RNA.

[3] = tested on: stearoyl-coenzyme A desaturase (SCD1); settings: n = 10
Method: as §1, §2, §3, §4

[4] = tested on: enoyl-coenzyme A hydratase (ECH); settings: n = 10
Method: as §1, §2, §3, §4

[5] = tested on: PPAR gamma; settings: C57BL/6J wild-type mice, 78 days, n = 10
Method: as §1, §2, §3, §4

[6] = tested on: db/db mice
Method: Mice were purchased from Harlan (Indianapolis, Ind.). Following an acclimation period of 5 days on regular rodent chow they were fed purified, high fat diets that represented a modification of the AIN-93G rodent diet in which the nutritional requirements, including those for polyunsaturated fatty acids (PUFA), were met or exceeded.
Stock fatty acid solutions, e.g., soybean oil or catalpic acid were kept at −20° C. and nitrogen-purged every time that the bottles were opened. All the experimental diets contained the same amount of energy (isocaloric) and protein (isonitrogenous). To maintain the diets isocalorically, catalpic acid replaced soybean oil in the catalpic acid diet. We utilized male, db/db [BKS.Cg-+Lepr^db/+Lepr^db/OlaHsd (type 2 Diabetic)] mice (n=20) weighing 19.86 g on day 1 of the study. The db/db mice lack the long isoform of leptin receptor and represent a well-established model of type 2 Diabetes and are often utilized to determine the pre-clinical efficacy of antidiabetic drugs. Half of the mice were fed a control and the other half a catalpic acid-supplemented diet (1 g catalpa oil/100 g diet).
(§5) Mice were weighed on a daily basis and examined for clinical signs of disease by blinded observers. Water and feed intake were assessed on a daily basis. Fasting (12 h) glucose and insulin concentrations were determined on days 0, 7, 15, 21 and 28, of the study. Briefly, blood was collected via the caudal vein and placed onto capillary blood collection tubes. Insulin concentrations were determined by using a commercially available insulin enzyme-linked immunosorbent assay (ELISA) (Linco Research, St Charles, Mo.) per manufacturer's instructions. Mice were administered a glucose tolerance test and euthanized by CO2 narcosis on day 28 of the study. For the glucose tolerance test, animals were fasted overnight (12 hours), injected intraperitoneally with D-glucose (2 g/kg body weight) and blood samples were collected via the caudal vein prior to the injection (time 0) and at 15, 30, 60, 90, 120 and 180 minutes following the injection to determine the effect of CAT on the kinetics of glucose normalization.

[7] = tested on: C57BL6 mice; settings: for White adipose tissue, g (abdominal) / Brown adipose tissue, g (interscapular) / Glucose (mg/dL), plasma fasting / Insulin (ng/mL), plasma fasting: C57BL6 mice, day 78; for White adipose tissue, g (abdominal): least squares mean
Description: In Western countries the Metabolic Syndrome or Syndrome X (i.e., diabetes, obesity, cardiovascular disease, hypertension and hyperlipidemia) is on a steady rise. […] A total of forty-seven C57BL6 mice were used in experiment 1. Twenty-five mice were fed a control diet and […] mice were fed a diet supplemented with catalpic acid (0.6 g catalpic acid/100 g food). For the first 32 days of the experiment all diets contained 7% fat, 0.02% total cholesterol, and they obtained 14.5% of calories from fat by replacing catalpic acid with linoleic acid (wt/wt basis) in the control diet.
These diets are defined as regular diets and were formulated to be isocaloric between treatment groups. On day 32 of the experiment, twenty mice within each group were fed high fat diets containing 19.6% fat, 0.2% total cholesterol that obtained 40.1% of calories from fat by replacing catalpic acid with lard (wt/wt basis) in the control high fat diet.
The high fat diets were also formulated to be isocaloric between treatment groups. The remaining mice within each group (n=5) were fed the regular diets. On day 78 of the experiment, mice were killed, and blood was collected and immediately analyzed for fasting glucose concentrations by using the Accu-Check Instant Plus System (Roche Diagnostics Corporation, Indianapolis, Ind.) or stored for subsequent analysis of insulin and lipid concentrations in plasma. Abdominal white adipose tissue and interscapular brown adipose tissue were collected, weighed and stored at −80° C. for RNA analyses. Liver, lungs, kidneys, pancreas and heart were examined for macroscopic abnormalities (gross lesions), fixed in phosphate-buffered formalin (10%) and processed for histological evaluation. All specimens were generally labeled with the following information: 1) mouse number; 2) date collected; 3) experiment number; 4) type of solvent; and 5) tissue type.
Serum insulin concentrations were determined by using commercially available enzyme-linked immunosorbent assay kits (Linco Research, St. Charles, Mo.).

[8] = tested on: PPAR delta
Method: On day 28 or 78 of Experiments 1 and 2, visceral white adipose tissue (WAT) or pancreas samples were collected, stored in RNA later and frozen at −80° C. The dissection of intra-abdominal WAT was performed under magnification. RNA was isolated from WAT and pancreas specimens utilizing RNA isolation columns (Qiagen, Valencia, Calif.) per the manufacturer's instructions. RNA from the WAT was isolated using the Lipid Minikit (Qiagen). RNA was quantified using a μQuant microplate reader (Bio-TEK® Instruments, Inc., Winooski, Vt.). Briefly, total RNA (1 μg) from each sample was used to generate complementary DNA (cDNA) template using the iScript cDNA Synthesis Kit (Bio-Rad, Hercules, Calif.). The total reaction volume was 20 μl. […]
The PCR primer pairs were designed based on previously published sequences (GenBank) using the Oligo 6 primer design software (Molecular Biology Insights, Cascade, Colo.). […] The purified amplicon for each gene was quantified on an agarose gel using a DNA mass ladder. […]
Messenger RNA (mRNA) expression of peroxisome proliferator-activated receptor (PPAR) gamma, PPAR alpha, and PPAR delta was determined in adipose tissue. Based on the patterns of expression of the nuclear receptors in each tissue, the expression of a relevant panel of responsive genes was evaluated by quantitative real-time PCR. […]

[9] = tested on: obese mice fed high-fat diets; settings: CAT-supplemented high-fat diets
Method: Experiment 3 was conducted as described for Experiments 1 and 2 as indicated below except that determination of plasma lipid concentrations and quantitative real-time PCR were performed.
Serum HDL cholesterol concentrations were determined by using a commercial precipitation assay (Wako Diagnostics, Richmond, Va.) per the manufacturer's instructions.

[10] = tested on: db/db mice; settings: 0-180 min after glucose injection, all time points, FIG. 2B
Method: as §5

[11] = C57BL/6J wild-type mice, 78 days
[12] = high fat diets, CAT-supplemented
[13] = regular diets, CAT-supplemented

Compound: CCCC\C=C/C=C/C=C/CCCCCCCC(=O)O [CAT, catalpic acid]
- glucose tolerance versus control ([1]; mice fed high fat diets, FIG. 1B): normalizes impaired glucose tolerance
- glucose tolerance versus control ([1]; mice fed regular diets, FIG. 1A): not different
- PPAR alpha mRNA expression in white adipose tissue [2, 11]: 0.005^a picograms of starting cDNA per microgram of white adipose tissue total RNA
- PPAR alpha mRNA expression in white adipose tissue ([2]; db/db mice, 28 days): 0.0052^a picograms of starting cDNA per microgram of white adipose tissue total RNA
- pancreatic concentrations of PPAR alpha and its responsive genes ([2]; pancreas of CAT-fed mice): unchanged
- Stearoyl CoA Desaturase mRNA expression in white adipose tissue [3, 11]: 0.130^a picograms of starting cDNA per microgram of white adipose tissue total RNA
- Stearoyl CoA Desaturase mRNA expression in white adipose tissue ([3]; db/db mice, 28 days): 0.095^a picograms of starting cDNA per microgram of white adipose tissue total RNA
- Enoyl CoA Hydratase mRNA expression in white adipose tissue [4, 11]: 0.0039^a picograms of starting cDNA per microgram of white adipose tissue total RNA
- Enoyl CoA Hydratase mRNA expression in white adipose tissue ([4]; db/db mice, 28 days): 0.0024 picograms of starting cDNA per microgram of white adipose tissue total RNA
- PPAR gamma mRNA expression in white adipose tissue [5]: 0.074 picograms of starting cDNA per microgram of white adipose tissue total RNA
- difference in WAT weight between groups attributable to catalpic acid ([6]; day 28): over 10%
- abdominal WAT weight versus control ([6]; day 28, FIG. 5): significantly lower
- body weight versus control ([6]; high fat diet, FIG. 4A): No differences
- feed intake versus control ([6]; high fat diet, FIG. 4B): No differences
- glucose concentrations ([6]; high fat diet, day 28 (control 425 mg/dl)): 290 mg/dL
- fasting plasma insulin concentrations ([6]; high fat diet, days 0-28, remained at basal levels, FIG. 3): lower than 4 ng/ml
- fasting plasma glucose versus high fat control diet ([6]; high fat diet, days 14, 21 and 28, P<0.05, FIG. 2A): lower
- White adipose tissue, g (abdominal) ([7]; high fat diets from day 32, CAT-supplemented): 0.607^b g
- Brown adipose tissue, g (interscapular) [7, 12]: 0.105 g
- Glucose (mg/dL), plasma fasting [7, 12]: 205.43^b mg/dL
- Insulin (ng/mL), plasma fasting [7, 12]: 0.730^b ng/mL
- Brown adipose tissue, g (interscapular) [7, 13]: 0.169 g
- Glucose (mg/dL), plasma fasting [7, 13]: 146.20^b mg/dL
- Insulin (ng/mL), plasma fasting [7, 13]: 0.960^b ng/mL
- White adipose tissue, g (abdominal) [7, 13]: 0.751^b g
- fatty liver or enlarged viscera ([7]; mice fed catalpic acid-supplemented diets, Experiment 1): not observed
- PPAR delta mRNA expression in white adipose tissue ([8]; C57BL/6J wild-type mice, 78 days, n = 10): 0.007 picograms of starting cDNA per microgram of white adipose tissue total RNA
- PPAR delta expression in the pancreas ([8]; pancreas of CAT-fed mice, P<0.04): 0.069
- plasma triglyceride concentrations versus control high-fat diet ([9]; mice, FIG. 6B): lower
- HDL cholesterol concentrations versus control high-fat diet ([9]; obese mice, FIG. 6A): greater
- glucose normalizing ability versus control [10]: greater
